Reference: US20240368177A1, “5-AMINO-6,8-DIHYDRO-1H-FURO[3,4-d]PYRROLO[3,2-b]PYRIDINE-2-CARBOXAMIDE DERIVATIVES AS MTA-COOPERATIVE INHIBITORS OF PRMT5” (BeiGene Switzerland GmbH, priority 2023, published 2024)

Assays:
HCT116-MTAP-KO = experiment: Cell killing in HCT116 isogenic pair (Cell Titer-Glo viability), MTAP knock-out cells; format: cell-based, human; details: Homo sapiens, HCT-116, 144 h, 6 days incubation, 0-10 μM, * = more than 50% viability inhibition at tested concentration without a full curve
Description: (§1) HCT116 cell line (ATCC, CCL-247) was isolated from the colon of an adult with colon cancer. It has a mutation in codon 13 of the ras proto-oncogene and can be used as a positive control for PCR assays of mutation in this codon. HCT116-MTAP-KO was knocked-out-MTAP-gene based HCT116, and a single clone was passed for this assay. HCT116-mock-RNA-KO was knocked-out-mock-gene based HCT116 with MTAP wildtype genotype. The base medium for HCT116 isogenic pair is RPMI 1640, HEPES (Gibco, 22400105). To make the complete growth medium, added the following components to the base medium: fetal bovine serum to a final concentration of 10% (Gibco, 10099-141C). The cell line was grown in a humidified 5% CO2 atmosphere at 37° C. and regularly tested for the presence of mycoplasma with MpcoAlert™ PLUS Mycoplasma Detection Kit (Lonzak LT07-710).
(§2) • Seeded HCT116-mock-RNA-KO (4E2/well) or HCT116-MTAP-KO (4E2/well) cells into a 96-well plate (Greiner: 655090), 100 μL/well. • Incubated at 37° C., 5% CO2, overnight. • Added 50 μL fresh growth medium containing serial dilution of test compounds for a final test compound concentration of 0-10 μM to each well. • Incubated at 37° C., 5% CO2, 6 days. • The cell viability was detected by Cell Titer-Glo (Promega, G7573). Added 70 μL of CeliTiter-Glo® reagent in each well. • Incubated at room temperature for 10 minutes to stabilize luminescent signal. • Analyzed with Microplate Reader (TECAN, SPARK) and fit IC50 using Prism® 9.

HCT116-mock-RNA-KO = experiment: Cell killing in HCT116 isogenic pair (Cell Titer-Glo viability), mock knock-out cells with MTAP wildtype genotype; format: cell-based, human; details: Homo sapiens, HCT-116, 144 h, 6 days incubation, 0-10 μM
Description: as §1, §2

Row | Structure (SMILES) | IC50 (HCT116-MTAP-KO) [nM] | IC50 (HCT116-mock-RNA-KO) [nM]
1 | COC[C@@H](C)N(Cc1ccc(Br)cn1)C(=O)c1cc2nc(N)c3c(c2[nH]1)COC3 [Example 45, (R)-5-amino-N-((5-bromopyridin-2-yl)methyl)-N-(1-methoxypropan-2-yl)-6,8-dihydro-1H-furo[3,4-d]pyrrolo[3,2-b]pyridine-2-carboxamide] | 7.2 | 856
2 | COC[C@@H](C)N(Cc1c(F)cc(C#N)cc1F)C(=O)c1cc2nc(N)c3c(c2[nH]1)COC3 [Example 46, (R)-5-amino-N-(4-cyano-2,6-difluorobenzyl)-N-(1-methoxypropan-2-yl)-6,8-dihydro-1H-furo[3,4-d]pyrrolo[3,2-b]pyridine-2-carboxamide] | 9 | 854
3 | Nc1nc2cc(C(=O)N(Cc3ncccc3F)Cc3c(F)cc(F)cc3F)[nH]c2c2c1COC2 [Example 47, 5-amino-N-((3-fluoropyridin-2-yl)methyl)-N-(2,4,6-trifluorobenzyl)-6,8-dihydro-1H-furo[3,4-d]pyrrolo[3,2-b]pyridine-2-carboxamide] | 4.4 | 605
4 | C[C@H](c1ncccn1)N(Cc1ccc(C2CC2)cn1)C(=O)c1cc2nc(N)c3c(c2[nH]1)COC3 [Example 48, (R)-5-amino-N-((5-cyclopropylpyridin-2-yl)methyl)-N-(1-(pyrimidin-2-yl)ethyl)-6,8-dihydro-1H-furo[3,4-d]pyrrolo[3,2-b]pyridine-2-carboxamide] | 8.4 | 625
5 | COC[C@@H](C)N(Cc1ncc(Br)cc1F)C(=O)c1cc2nc(N)c3c(c2[nH]1)COC3 [Example 49, (R)-5-amino-N-((5-bromo-3-fluoropyridin-2-yl)methyl)-N-(1-methoxypropan-2-yl)-6,8-dihydro-1H-furo[3,4-d]pyrrolo[3,2-b]pyridine-2-carboxamide] | 6.1 | 835
6 | C[C@H]1OCc2c1c(N)nc1cc(C(=O)N(Cc3ccc(Br)cn3)Cc3ncccc3F)[nH]c21 [Example 50, (R)-5-amino-N-((5-bromopyridin-2-yl)methyl)-N-((3-fluoropyridin-2-yl)methyl)-6-methyl-6,8-dihydro-1H-furo[3,4-d]pyrrolo[3,2-b]pyridine-2-carboxamide] | 8.6 | 1360
7 | C[C@H](c1ncccn1)N(Cc1ccc(I)cn1)C(=O)c1cc2nc(N)c3c(c2[nH]1)COC3 [Example 51, (R)-5-amino-N-((5-iodopyridin-2-yl)methyl)-N-(1-(pyrimidin-2-yl)ethyl)-6,8-dihydro-1H-furo[3,4-d]pyrrolo[3,2-b]pyridine-2-carboxamide] | 7.8 | 558
8 | C[C@H](c1ncccn1)N(Cc1ncc(C2CC2)cc1F)C(=O)c1cc2nc(N)c3c(c2[nH]1)COC3 [Example 52, (R)-5-amino-N-((5-cyclopropyl-3-fluoropyridin-2-yl)methyl)-N-(1-(pyrimidin-2-yl)ethyl)-6,8-dihydro-1H-furo[3,4-d]pyrrolo[3,2-b]pyridine-2-carboxamide] | 4.6 | 419
9 | COC[C@@H](C)N(Cc1cnc(C2CC2)cn1)C(=O)c1cc2nc(N)c3c(c2[nH]1)COC3 [Example 53, (R)-5-amino-N-((5-cyclopropylpyrazin-2-yl)methyl)-N-(1-methoxypropan-2-yl)-6,8-dihydro-1H-furo[3,4-d]pyrrolo[3,2-b]pyridine-2-carboxamide] | 34 | > 10000
10 | CCN(C(=O)c1cc2nc(N)c3c(c2[nH]1)COC3)[C@@H]1COCc2cc(C(F)(F)F)ccc21 [Example 54, (S)-5-amino-N-ethyl-N-(7-(trifluoromethyl)isochroman-4-yl)-6,8-dihydro-1H-furo[3,4-d]pyrrolo[3,2-b]pyridine-2-carboxamide] | 12 | 1360
11 | CCN(C(=O)c1cc2nc(N)c3c(c2[nH]1)COC3)[C@H]1COCc2cc(C(F)(F)F)ccc21 [Example 55, (R)-5-amino-N-ethyl-N-(7-(trifluoromethyl)isochroman-4-yl)-6,8-dihydro-1H-furo[3,4-d]pyrrolo[3,2-b]pyridine-2-carboxamide] | 1640 | > 10000
12 | COC[C@@H](C)N(Cc1ncc(C2CC2)cc1F)C(=O)c1cc2nc(N)c3c(c2[nH]1)COC3 [Example 56, (R)-5-amino-N-((5-cyclopropyl-3-fluoropyridin-2-yl)methyl)-N-(1-methoxypropan-2-yl)-6,8-dihydro-1H-furo[3,4-d]pyrrolo[3,2-b]pyridine-2-carboxamide] | 5 | 146
13 | C[C@H]1OC[C@H](N(C)C(=O)c2cc3nc(N)c4c(c3[nH]2)COC4)c2ccc(C(F)(F)F)cc21 [Example 57, 5-amino-N-methyl-N-((1R,4R)-1-methyl-7-(trifluoromethyl)isochroman-4-yl)-6,8-dihydro-1H-furo[3,4-d]pyrrolo[3,2-b]pyridine-2-carboxamide] | 958 | > 10000
14 | C[C@@H]1OC[C@H](N(C)C(=O)c2cc3nc(N)c4c(c3[nH]2)COC4)c2ccc(C(F)(F)F)cc21 [Example 58, 5-amino-N-methyl-N-((1S,4R)-1-methyl-7-(trifluoromethyl)isochroman-4-yl)-6,8-dihydro-1H-furo[3,4-d]pyrrolo[3,2-b]pyridine-2-carboxamide] | 1080 | > 10000
15 | C[C@@H]1OC[C@@H](N(C)C(=O)c2cc3nc(N)c4c(c3[nH]2)COC4)c2ccc(C(F)(F)F)cc21 [Example 59, 5-amino-N-methyl-N-((1S,4S)-1-methyl-7-(trifluoromethyl)isochroman-4-yl)-6,8-dihydro-1H-furo[3,4-d]pyrrolo[3,2-b]pyridine-2-carboxamide] | 110 | > 10000
16 | C[C@H]1OC[C@@H](N(C)C(=O)c2cc3nc(N)c4c(c3[nH]2)COC4)c2ccc(C(F)(F)F)cc21 [Example 60, 5-amino-N-methyl-N-((1R,4S)-1-methyl-7-(trifluoromethyl)isochroman-4-yl)-6,8-dihydro-1H-furo[3,4-d]pyrrolo[3,2-b]pyridine-2-carboxamide] | 7.3 | 857
17 | C[C@@H](c1cnccn1)N(Cc1ncc(Br)cc1F)C(=O)c1cc2nc(N)c3c(c2[nH]1)COC3 [Example 61, (S)-5-amino-N-((5-bromo-3-fluoropyridin-2-yl)methyl)-N-(1-(pyrazin-2-yl)ethyl)-6,8-dihydro-1H-furo[3,4-d]pyrrolo[3,2-b]pyridine-2-carboxamide] | 808 | > 10000
18 | C[C@H](c1cnccn1)N(Cc1ncc(Br)cc1F)C(=O)c1cc2nc(N)c3c(c2[nH]1)COC3 [Example 62, (R)-5-amino-N-((5-bromo-3-fluoropyridin-2-yl)methyl)-N-(1-(pyrazin-2-yl)ethyl)-6,8-dihydro-1H-furo[3,4-d]pyrrolo[3,2-b]pyridine-2-carboxamide] | 17 | 2080
19 | CN(C(=O)c1cc2nc(N)c3c(c2[nH]1)COC3)[C@@H]1COCc2cc(Br)ccc21 [Example 63, (S)-5-amino-N-(7-bromoisochroman-4-yl)-N-methyl-6,8-dihydro-1H-furo[3,4-d]pyrrolo[3,2-b]pyridine-2-carboxamide] | 22 | 2500
20 | CN(C(=O)c1cc2nc(N)c3c(c2[nH]1)COC3)[C@H]1COCc2cc(Br)ccc21 [Example 64, (R)-5-amino-N-(7-bromoisochroman-4-yl)-N-methyl-6,8-dihydro-1H-furo[3,4-d]pyrrolo[3,2-b]pyridine-2-carboxamide] | 362 | > 10000
21 | Nc1nc2cc(C(=O)N(Cc3ncc(C4CC4)cc3F)C3CCCC3)[nH]c2c2c1COC2 [Example 65, 5-amino-N-cyclopentyl-N-((5-cyclopropyl-3-fluoropyridin-2-yl)methyl)-6,8-dihydro-1H-furo[3,4-d]pyrrolo[3,2-b]pyridine-2-carboxamide] | 17 | 2460
22 | CC(C)N(Cc1ncc(C2CC2)cc1F)C(=O)c1cc2nc(N)c3c(c2[nH]1)COC3 [Example 66, 5-amino-N-((5-cyclopropyl-3-fluoropyridin-2-yl)methyl)-N-isopropyl-6,8-dihydro-1H-furo[3,4-d]pyrrolo[3,2-b]pyridine-2-carboxamide] | 20 | 2520
23 | CC[C@@H](C)N(Cc1ncc(C2CC2)cc1F)C(=O)c1cc2nc(N)c3c(c2[nH]1)COC3 [Example 67, (R)-5-amino-N-(sec-butyl)-N-((5-cyclopropyl-3-fluoropyridin-2-yl)methyl)-6,8-dihydro-1H-furo[3,4-d]pyrrolo[3,2-b]pyridine-2-carboxamide] | 4.2 | 453
24 | C[C@H]1OCc2c1c(N)nc1cc(C(=O)N(C)[C@@H]3COCc4cc(C(F)(F)F)ccc43)[nH]c21 [Example 68, (R)-5-amino-N,6-dimethyl-N—((S)-7-(trifluoromethyl)isochroman-4-yl)-6,8-dihydro-1H-furo[3,4-d]pyrrolo[3,2-b]pyridine-2-carboxamide] | 9 | 1690
